Results as given in patent publication US12447150B2, “Treatment of cancer by combination of immune checkpoint inhibitor and folfirinox therapy” (ONO PHARMACEUTICAL CO., LTD., priority 2018, dated 2025).

Test system: distant metastatic pancreatic cancer
Test: Multicenter, open-label study of Nivolumab in combination with mFFX therapy; anti-tumor effect by CT/MRI according to RECIST guideline version 1.1
Format: in vivo, patients
Settings: 16 weeks after start of administration, central judgment
Procedure: The purpose of this clinical trial is to evaluate the efficacy and safety in combination of Nivolumab and mFFX therapy for patients with distant metastatic pancreatic cancer, having no history of chemotherapy. The clinical trial can evaluate the combined effect of Nivolumab and mFFX therapy.
Patients with distant metastatic pancreatic cancer, having no history of chemotherapy
Nivolumab was intravenously administered at 480 mg every 4 weeks over 30 minutes, and Nivolumab was continuously administered until falling into the prescribed criterion for discontinuing the administration of Nivolumab. No change in dose of Nivolumab is allowed. When Nivolumab and mFFX therapy were administered on the same day, Nivolumab was administered initially, and at least 30 minutes after the end of Nivolumab administration, mFFX therapy started.
Oxaliplatin was intravenously administered at 85 mg/m^2 over 2 hours, and then levofolinate was intravenously administered at 200 mg/m^2 over 2 hours. 30 minutes after the start of levofolinate administration, irinotecan was intravenously administered at 150 mg/m^2 over 1.5 hours. Further, after completion of levofolinate administration, fluorouracil was intravenously administered at 2400 mg/m^2 over 46 hours. This was set as one cycle and repeated every 2 weeks.
The anti-tumor effect was evaluated by image diagnosis using CT/magnetic resonance imaging (MRI) on chest, abdomen and pelvis, and measuring the tumor diameter in target lesion according to RECIST guideline version 1.1. The diagnosis imaging (measurement of tumor diameter and judgement of anti-tumor effect) was conducted at the following time points. […]
6 months after the first subject was enrolled, for 7 subjects in which the image diagnosis twice every 8 weeks as defined in the clinical trial protocol was completed (16 weeks after the start of administration of the drug), the effectiveness was evaluated (central judgment).

[1] = Nivolumab 480 mg i.v. every 4 weeks in combination with mFFX therapy, 7 subjects evaluated

Nivolumab
response rate (Nivolumab 480 mg i.v. every 4 weeks in combination with mFFX therapy every 2 weeks, 7 subjects with distant metastatic pancreatic cancer, no history of chemotherapy): 42.9% | CR (number of cases) [1]: 0 cases | PR (number of cases) [1]: 3 cases
